The values below are quoted from earlier work in US20210213129A1, “NON-PSYCHOACTIVE CANNABINOIDS AS ADJUVANTS TO ENHANCE MUCOSAL IMMUNITY” (Immugen Pharma LLC, priority 2014, published 2021).

Molecules are shown by their SMILES.

For series [1], the system named is virgin and GC B cells.
The test system of series [2] is B-cells. The following applies: cultured B-cells, co-stimulation with IL-4 and anti-CD40.
The test system of series [3] is macrophages. The following applies: macrophages activated by LPS or TMEV.
Series [4] relates to B cells. The conditions noted are these: selective CB1 antagonist added.
The subject of series [5] is GATA3; IL12Rβ2. The conditions noted are these: mice, after Legionella challenge.
The test system of series [6] is T cells. The conditions noted are these: mixed lymphocyte reaction and highly purified T cells.
Series [7] has as its system T cells. The following applies: T cells stimulated by allogeneic dendritic cells or anti-CD3/anti-CD28.

`CCCCCCC(C)(C)c1ccc([C@@H]2C[C@H](O)CC[C@H]2CCCO)c(O)c1` [CP55940]: the “proliferation of B-cell subsets” value in series [1] (in the absence of CD40 MoAbs) is reported as “incapable of inducing any proliferation”. Besides, in series [2], the “increased IgE expression” value is on record as 40-60%.

Consider `CCCC(C)(C)c1ccc2c(c1)OC(C)(C)[C@@H]1CC=C(C)C[C@@H]21` [JWH-133], for which the IL-12p40 entry in series [3] is “downregulated”.

In the case of `Cc1c(C(=O)NN2CCCCC2)nn(-c2ccc(Cl)cc2Cl)c1-c1ccc(Cl)cc1` [SR141716A], the “block of CB2 receptor mRNA expression and of the B-cell enhancing effects of the drug” value in series [4] was “did not block”.

Take `Cc1ccc(Cn2nc(C(=O)NC3C4(C)CCC(C4)C3(C)C)cc2-c2ccc(Cl)c(C)c2)cc1` (centres unmarked) [SR 144528A]: in series [1] (selective CB2 receptor antagonist against agonist CP55,940), the “proliferative response of virgin and GC B cells by CP55,940” value is recorded as “inhibited”.

On to `CCCCCc1cc(O)c2c(c1)OC(C)(C)[C@@H]1CCC(C)=C[C@@H]21` [THC, tetrahydrocannabinol], for which, in series [5] (CB2 mechanism), the “TH2 biasing factor GATA3” value is given as “upregulation”. Also, the “IL12Rβ2, a marker of TH1 polarization” value in series [5] (mediated by CB1 receptor) was “downregulation”. In addition, in series [6] (CB1 mediated), the “Th1 cytokines Il-2, IFN-γ and Il-12” value is “downregulation”. Further, the “IL-4 and Il-5” value in series [6] (CB2 mediated) was “upregulation”. In addition, the “IL-4, % of diluent control levels” value in series [7] (of diluent control levels) was 105±11%. In series [7] (p<0.05), the “decrease of INF-γ” value is recorded as 51±18%.
